The structures appear in SMILES notation.

Here are results for eleven compounds from patent US12070457B2, “Substituted pyridines, pyridazines, pyrimidines, and 1,2,3-triazines as bruton's tyrosine kinase inhibitors” (HUTCHISON MEDIPHARMA LIMITED, priority 2020, dated 2024).

A short description of series [1]: Stability test in liver microsomes (rat). The following applies: 1 μM compound; for stability in rat liver microsomes compared with reference GDC-0853: 0.5 mg/mL liver microsomes, 30 minutes incubation; for RLM, percentage of remaining compound after 30 minutes of incubation: rat liver microsomes. It counts as in vitro ADME. The source says: (§1) Example 5 Stability Test in Liver Microsomes
(§2) Both male CD-1 mouse pooled liver microsomes and male SD rat pooled liver microsomes were purchased from BioreclamationIVT Corporation, USA.
(§3) Phenacetin, glucose-6-phosphate dehydrogenase (G-6-PDH) and nicotinamide adenine dinucleotide phosphate (NADP) were all purchased from Sigma-Aldrich Corporation, USA. Glucose-6-phosphate (G-6-P) was purchased from Shanghai Eybridge Chemical Technology Co., Ltd.
(§4) Ten mM test compound stock solution: a certain amount of test compound was weighed, and dissolved with an appropriate volume of DMSO to prepare a stock solution with a concentration of 10 mM for use.
(§5) Reaction stopping solution: an appropriate amount of internal standard compound phenacetin was dissolved in acetonitrile to prepare a reaction stopping solution with a concentration of 1000 ng/mL for use at room temperature.
(§6) The test compound stock solution was diluted with an organic solvent (usually a mixture of acetonitrile, methanol and water with various ratios, depending on the solubility of the compound, if necessary, 1 N hydrochloric acid or 1 N sodium hydroxide would be added to facilitate solubilization) to the 0.1 mM (the final concentration of the compound in the reaction system was 1 μM) and the concentration percentage of the organic solvents in the incubation system no more than 1% (wherein the percentage of DMSO was required to be no more than 0.1%). An appropriate amount of 100 mM NADP, 500 mM G-6-P and 100 Unit/mL G-6-PDH were mixed and diluted with ultrapure water (the final system contains 1 mM NADP, 5 mM G-6-P and 1 Unit/mL G-6-PDH), pre-incubated in a 37° C. water bath for 10 minutes and then placed on ice for use as a NADPH regeneration solution. 20 mg/mL liver microsomes solution and 200 mM phosphate buffer was mixed, and diluted with ultrapure water to give a liver microsomes solution containing 2.5 mg/mL liver microsomes (the final concentration of the reaction system is 0.5 mg/mL) and 50 mM phosphate buffer. The diluted liver microsomes solution was mixed with 0.1 mM compound solution, a mixture of 100 mM EDTA, 300 mM MgCl2 solution, 200 mM phosphate buffer (the final system was 3 mM MgCl2, 1 mM EDTA and 50 mM phosphate buffer) and water in an appropriate volume was added. Finally, the NADPH regeneration solution was added, then the reaction solution was placed in a 37° C. water bath to start the reaction (the reaction time was 30 minutes), and the reaction was stopped by adding the ice-cold acetonitrile reaction stopping solution containing the internal standard. The 0-minute sample was not incubated in a 37° C. water bath, and its difference from the 30-minute sample further lies in that the ice-cold acetonitrile reaction stopping solution containing the internal standard was added first, and then the NADPH regeneration solution was added. The sample added with the reaction stopping internal standard solution was vortexed and mixed well, and then centrifuged at 4400 rpm for 10 minutes. The supernatant was taken and diluted ten times with 50% methanol for LC-MS/MS analysis.
(§7) LC-MS/MS was used to determine the concentration of the compound in the sample. The percentage of the remaining compound after 30 minutes of incubation comparing with that in the 0-minute sample was calculated using the peak area ratio of the compound to the internal standard as an indicator, to evaluate the metabolic stability of the compound.
(§8) Instrument: API4500, API4000 or LTQ Mass Spectrometer; the liquid phase is UHPLC system (Shimadzu LC-30 AD, model Nexra X2) including liquid delivery unit, column thermostat, detector and autosampler; or Agilent 1200 Binary Pump series HPLC and CTC Autosampler.
(§9) Chromatographic column: Waters XSELECT Hss T3 C18 (2.5 μm, 2.1×50 mm) or […] (5 μm, 2.0×50 mm)
(§10) Mobile phase: • A: water with 0.1% FA (formic acid) (with or without 0.1% ACN (acetonitrile)) • B: acetonitrile with 0.1% FA (formic acid).
For orientation: Liver microsomes are a subcellular fraction often used to study metabolism.

Series [2] in a line: Stability test in liver microsomes (mouse). It counts as in vitro ADME. The following applies: 1 μM compound; for stability in mouse liver microsomes compared with reference GDC-0853: 0.5 mg/mL liver microsomes, 30 minutes incubation; for MLM, percentage of remaining compound after 30 minutes of incubation: mouse liver microsomes.
From the text: as §1, §2, §3, §4, §5, §6, §7, §8, §9, §10

`C[C@H]1CN(C2COC2)CCN1c1ccc(Nc2cc(-c3ccnc(-n4ncn5c6c(cc5c4=O)CC(C)(C)C6)c3CO)cn(C)c2=O)nc1` [Compound 79]: in series [1], the “stability in rat liver microsomes compared with reference GDC-0853” value is “better than that of the reference GDC-0853” and the “RLM, percentage of remaining compound after 30 minutes of incubation” value (“RLM, percentage of remaining compound” below) is recorded as about 100%. Moreover, in series [2], the “stability in mouse liver microsomes compared with reference GDC-0853” value is “better than that of the reference GDC-0853” and the “MLM, percentage of remaining compound after 30 minutes of incubation” value (shortened to “MLM, percentage of remaining compound”) is given as about 100%.

`C[C@H]1CN(C2COC2)CCN1c1ccc(Nc2cc(-c3ccnc(-n4ccn5c(cc6cc(F)ccc65)c4=O)c3CO)cn(C)c2=O)nc1` [Compound 75]: in series [1], the “stability in rat liver microsomes compared with reference GDC-0853” value is given as “better than that of the reference GDC-0853” and the “RLM, percentage of remaining compound” value worked out at 84.0%. In addition, in series [2], the “stability in mouse liver microsomes compared with reference GDC-0853” value is “better than that of the reference GDC-0853” and the “MLM, percentage of remaining compound” value was determined as 83.0%.

Consider `C[C@H]1CN(C2COC2)CCN1c1ccc(Nc2cc(-c3ccnc(-n4cnn5c6c(cc5c4=O)CC(C)(C)C6)c3CO)cn(C)c2=O)nc1` [Compound 63], for which, in series [1], the “stability in rat liver microsomes compared with reference GDC-0853” value is reported as “better than that of the reference GDC-0853” and the “RLM, percentage of remaining compound” value turned out to be 89.6%. In series [2], the “stability in mouse liver microsomes compared with reference GDC-0853” value was “better than that of the reference GDC-0853” and the “MLM, percentage of remaining compound” value is listed as 85.8%.

In the case of `CC1CCc2cc3c(=O)n(-c4nccc(-c5cc(Nc6ccc(N7CCN(C8COC8)C[C@@H]7C)cn6)c(=O)n(C)c5)c4CO)ccn3c2C1` (mixture of isomers) [Compound 78], in series [1], the “stability in rat liver microsomes compared with reference GDC-0853” value is “better than that of the reference GDC-0853” and the “RLM, percentage of remaining compound” value came out at 91.8%. In series [2], the “stability in mouse liver microsomes compared with reference GDC-0853” value was “better than that of the reference GDC-0853” and the “MLM, percentage of remaining compound” value was 83.4%.

For the compound `C[C@@H]1CN(c2ccc(Nc3cc(-c4ccnc(-n5ccn6c7c(cc6c5=O)CCC7)c4CO)cn(C)c3=O)nc2)[C@@H](C)CN1C1COC1` [Compound 2, 2-(5-((5-((2S,5R)-2,5-dimethyl-4-(oxetan-3-yl)piperazin-1-yl)pyridin-2-yl)amino)-3′-(hydroxymethyl)-1-methyl-6-oxo-1,6-dihydro-[3,4′-bispyridin]-2′-yl)-7,8-dihydro-2H-cyclopenta[4,5]pyrrolo[1,2-α]pyrazin-1(6H)-one], in series [1], the “stability in rat liver microsomes compared with reference GDC-0853” value is “better than that of the reference GDC-0853” and the “RLM, percentage of remaining compound” value is 98.9%. Moreover, in series [2], the “stability in mouse liver microsomes compared with reference GDC-0853” value is given as “better than that of the reference GDC-0853” and the “MLM, percentage of remaining compound” value was determined as 90.5%.

Consider `C[C@H]1CN(C2COC2)CCN1c1ccc(Nc2cc(-c3ccnc(-n4ccn5c6c(cc5c4=O)CCC6)c3CO)cn(C)c2=O)nc1` [Compound 64], for which, in series [1], the “stability in rat liver microsomes compared with reference GDC-0853” value is “better than that of the reference GDC-0853” and the “RLM, percentage of remaining compound” value worked out at 92.1%. Also, in series [2], the “stability in mouse liver microsomes compared with reference GDC-0853” value is “better than that of the reference GDC-0853” and the “MLM, percentage of remaining compound” value was 95.6%.

As to `Cn1cc(-c2ccnc(-n3ccn4c5c(cc4c3=O)CC(C)(C)C5)c2CO)cc(Nc2ccc(N3CCN(C4COC4)CC3)cn2)c1=O` [Compound 9], in series [1], the “stability in rat liver microsomes compared with reference GDC-0853” value is “better than that of the reference GDC-0853” and the “RLM, percentage of remaining compound” value is reported as 89.5%. For the same compound, in series [2], the “stability in mouse liver microsomes compared with reference GDC-0853” value is recorded as “better than that of the reference GDC-0853” and the “MLM, percentage of remaining compound” value is 95.7%.

Take `C[C@H]1CN(C2COC2)CCN1c1ccc(Nc2cc(-c3ccnc(-n4ccn5c6c(cc5c4=O)CC(F)(F)CC6)c3CO)cn(C)c2=O)nc1` [Compound 58]: in series [1], the “stability in rat liver microsomes compared with reference GDC-0853” value is “better than that of the reference GDC-0853” and the “RLM, percentage of remaining compound” value is reported as about 100%. In series [2], the “stability in mouse liver microsomes compared with reference GDC-0853” value is on record as “better than that of the reference GDC-0853” and the “MLM, percentage of remaining compound” value stood at 97.1%.

On to `C[C@H]1CN(C2COC2)CCN1c1ccc(Nc2cc(-c3ccnc(-n4ccn5c6c(cc5c4=O)CCC(F)(F)C6)c3CO)cn(C)c2=O)nc1` [Compound 56], for which, in series [1], the “stability in rat liver microsomes compared with reference GDC-0853” value is on record as “better than that of the reference GDC-0853” and the “RLM, percentage of remaining compound” value was 93.7%. Also, in series [2], the “stability in mouse liver microsomes compared with reference GDC-0853” value is listed as “better than that of the reference GDC-0853” and the “MLM, percentage of remaining compound” value is on record as 89.5%.

`C[C@H]1CN(C2COC2)CCN1c1ccc(Nc2cc(-c3ccnc(-n4ccn5c(cc6ccccc65)c4=O)c3CO)cn(C)c2=O)nc1` [Compound 74]: in series [1], the “stability in rat liver microsomes compared with reference GDC-0853” value is reported as “better than that of the reference GDC-0853” and the “RLM, percentage of remaining compound” value stood at 87.7%. Besides, in series [2], the “stability in mouse liver microsomes compared with reference GDC-0853” value is given as “better than that of the reference GDC-0853” and the “MLM, percentage of remaining compound” value is 97.5%.

`C[C@H]1CN(C2COC2)CCN1c1cnc(Nc2cc(-c3ccnc(-n4ccn5c6c(cc5c4=O)CC(C)(C)C6)c3CO)cn(C)c2=O)nc1` [Compound 44]: in series [1], the “stability in rat liver microsomes compared with reference GDC-0853” value is given as “better than that of the reference GDC-0853” and the “RLM, percentage of remaining compound” value amounted to 97.1%. In addition, in series [2], the “stability in mouse liver microsomes compared with reference GDC-0853” value is “better than that of the reference GDC-0853” and the “MLM, percentage of remaining compound” value was 93.1%.
